Test results from the kinase profiling compilation of Christmann-Franck et al. (2016).

Legend:
Experiment in all cases: KINOMEscan competition binding
Conditions in all cases: compound 10.0 µM
CHEK2 (human) = CHEK2 (human) (UniProt O96017)
TGFBR2 (human) = TGFBR2 (human) (UniProt P37173)
TNK1 (human) = TNK1 (human) (UniProt Q13470)
RPS6KA3 KD1 (human) = RPS6KA3 KD1 (human) (UniProt P51812)
PAK1 (human) = PAK1 (human) (UniProt Q13153)
STK10 (human) = STK10 (human) (UniProt O94804)
MAPK9 (human) = MAPK9 (human) (UniProt P45984)
LATS2 (human) = LATS2 (human) (UniProt Q9NRM7)
CIT (human) = CIT (human) (UniProt O14578)
CDK9 (human) = CDK9 (human) (UniProt P50750)
STK25 (human) = STK25 (human) (UniProt O00506)
CSNK1G3 (human) = CSNK1G3 (human) (UniProt Q9Y6M4)
CSNK1G3 (human), sequence (Q9Y6M4 whole entry, looked up): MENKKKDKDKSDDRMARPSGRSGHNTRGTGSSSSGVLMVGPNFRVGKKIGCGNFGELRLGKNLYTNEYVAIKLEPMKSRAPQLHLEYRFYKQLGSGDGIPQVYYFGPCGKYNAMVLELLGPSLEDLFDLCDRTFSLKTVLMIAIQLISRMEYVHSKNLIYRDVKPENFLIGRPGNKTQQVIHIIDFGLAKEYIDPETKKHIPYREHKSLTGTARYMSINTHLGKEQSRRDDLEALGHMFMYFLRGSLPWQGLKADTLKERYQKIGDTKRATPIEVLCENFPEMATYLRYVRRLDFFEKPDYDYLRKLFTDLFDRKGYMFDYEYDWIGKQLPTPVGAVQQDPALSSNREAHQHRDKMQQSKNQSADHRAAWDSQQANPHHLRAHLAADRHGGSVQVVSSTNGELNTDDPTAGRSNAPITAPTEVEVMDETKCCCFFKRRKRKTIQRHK

CSNK1G1 (human) = CSNK1G1 (human) (UniProt Q9HCP0)
CDC2L2 (human) = CDC2L2 (human) (UniProt Q9UQ88)
RPS6KA6 KD2 (human) = RPS6KA6 KD2 (human) (UniProt Q9UK32)
DAPK1 (human) = DAPK1 (human) (UniProt P53355)
FRK (human) = FRK (human) (UniProt P42685)
RIOK3 (human) = RIOK3 (human) (UniProt O14730)
MAPK1 (human) = MAPK1 (human) (UniProt P28482)
RIPK4 (human) = RIPK4 (human) (UniProt P57078)
PAK6 (human) = PAK6 (human) (UniProt Q9NQU5)
PAK6 (human), sequence (Q9NQU5 whole entry, looked up): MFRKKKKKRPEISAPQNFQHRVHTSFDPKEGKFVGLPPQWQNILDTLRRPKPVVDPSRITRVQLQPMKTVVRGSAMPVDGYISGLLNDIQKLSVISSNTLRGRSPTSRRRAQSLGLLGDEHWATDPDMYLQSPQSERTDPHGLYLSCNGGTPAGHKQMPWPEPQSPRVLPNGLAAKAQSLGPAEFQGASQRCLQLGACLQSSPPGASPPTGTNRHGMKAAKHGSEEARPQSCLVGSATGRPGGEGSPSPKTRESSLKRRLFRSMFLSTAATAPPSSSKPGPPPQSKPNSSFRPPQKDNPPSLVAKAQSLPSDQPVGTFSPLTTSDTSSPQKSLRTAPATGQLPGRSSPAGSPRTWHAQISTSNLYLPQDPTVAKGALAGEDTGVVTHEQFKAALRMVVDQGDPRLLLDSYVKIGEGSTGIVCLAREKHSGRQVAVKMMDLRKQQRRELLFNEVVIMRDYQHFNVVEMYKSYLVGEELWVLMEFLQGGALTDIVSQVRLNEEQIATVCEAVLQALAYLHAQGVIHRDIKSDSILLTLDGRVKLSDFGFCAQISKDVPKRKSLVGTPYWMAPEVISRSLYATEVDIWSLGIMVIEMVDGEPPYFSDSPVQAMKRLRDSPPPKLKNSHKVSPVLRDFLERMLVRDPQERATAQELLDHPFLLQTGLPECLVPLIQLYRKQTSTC

ACVR2B (human) = ACVR2B (human) (UniProt Q13705)
TXK (human) = TXK (human) (UniProt P42681)
STK32B (human) = STK32B (human) (UniProt Q9NY57)
STK32B (human), sequence (Q9NY57 whole entry, looked up): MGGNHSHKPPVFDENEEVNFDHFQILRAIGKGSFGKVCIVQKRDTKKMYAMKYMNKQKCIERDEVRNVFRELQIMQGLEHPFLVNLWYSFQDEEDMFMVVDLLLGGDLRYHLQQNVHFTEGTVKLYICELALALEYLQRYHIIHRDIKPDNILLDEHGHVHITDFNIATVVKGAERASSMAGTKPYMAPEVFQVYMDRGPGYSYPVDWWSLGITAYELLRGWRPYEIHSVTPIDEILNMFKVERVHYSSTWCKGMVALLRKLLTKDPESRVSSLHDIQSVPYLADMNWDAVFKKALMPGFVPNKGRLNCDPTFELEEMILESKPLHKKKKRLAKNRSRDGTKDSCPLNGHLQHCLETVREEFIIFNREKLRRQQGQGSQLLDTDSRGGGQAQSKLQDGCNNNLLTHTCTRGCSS

PTK2B (human) = PTK2B (human) (UniProt Q14289)
MINK1 (human) = MINK1 (human) (UniProt Q8N4C8)
EPHA5 (human) = EPHA5 (human) (UniProt P54756)
CAMK2G (human) = CAMK2G (human) (UniProt Q13555)
MAP3K11 (human) = MAP3K11 (human) (UniProt Q16584)
MAPK4 (human) = MAPK4 (human) (UniProt P31152)
MAP4K4 (human) = MAP4K4 (human) (UniProt O95819)
MAP3K5 (human) = MAP3K5 (human) (UniProt Q99683)
PRKD1 (human) = PRKD1 (human) (UniProt Q15139)
ADCK3 (human) = ADCK3 (human) (UniProt Q8NI60)
ADCK3 (human), sequence (Q8NI60 whole entry, looked up): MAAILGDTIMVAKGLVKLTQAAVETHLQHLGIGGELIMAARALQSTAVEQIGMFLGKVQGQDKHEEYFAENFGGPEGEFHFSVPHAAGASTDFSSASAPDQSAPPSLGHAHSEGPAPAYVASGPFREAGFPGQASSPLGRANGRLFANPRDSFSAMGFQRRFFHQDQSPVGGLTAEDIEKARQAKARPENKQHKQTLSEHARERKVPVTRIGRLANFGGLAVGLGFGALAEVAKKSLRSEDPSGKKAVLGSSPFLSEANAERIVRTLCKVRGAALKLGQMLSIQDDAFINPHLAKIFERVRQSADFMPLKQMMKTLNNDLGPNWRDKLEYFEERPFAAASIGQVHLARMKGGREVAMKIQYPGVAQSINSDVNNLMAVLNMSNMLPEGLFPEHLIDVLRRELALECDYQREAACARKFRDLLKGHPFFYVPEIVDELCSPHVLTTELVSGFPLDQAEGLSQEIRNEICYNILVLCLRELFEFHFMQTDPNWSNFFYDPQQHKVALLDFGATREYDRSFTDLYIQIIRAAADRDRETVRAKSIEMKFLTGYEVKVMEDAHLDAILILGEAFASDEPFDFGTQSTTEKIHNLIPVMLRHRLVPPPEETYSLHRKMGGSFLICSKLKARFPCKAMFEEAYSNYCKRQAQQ

RIOK1 (human) = RIOK1 (human) (UniProt Q9BRS2)
DAPK2 (human) = DAPK2 (human) (UniProt Q9UIK4)
CDK3 (human) = CDK3 (human) (UniProt Q00526)
CDK3 (human), sequence (Q00526 whole entry, looked up): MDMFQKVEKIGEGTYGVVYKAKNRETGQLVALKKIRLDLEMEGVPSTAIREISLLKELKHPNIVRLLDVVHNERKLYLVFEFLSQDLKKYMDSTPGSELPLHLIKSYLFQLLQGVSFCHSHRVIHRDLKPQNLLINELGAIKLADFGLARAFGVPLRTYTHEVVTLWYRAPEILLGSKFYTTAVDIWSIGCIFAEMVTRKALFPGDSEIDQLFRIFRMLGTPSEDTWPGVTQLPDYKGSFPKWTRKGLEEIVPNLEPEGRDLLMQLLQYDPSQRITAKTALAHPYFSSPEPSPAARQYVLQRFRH

LTK (human) = LTK (human) (UniProt P29376)
[1] = target: JAK1 JH1 catalytic (human) (UniProt P23458)
EPHA4 (human) = EPHA4 (human) (UniProt P54764)

TNK1 (human), sequence (Q13470 whole entry, looked up): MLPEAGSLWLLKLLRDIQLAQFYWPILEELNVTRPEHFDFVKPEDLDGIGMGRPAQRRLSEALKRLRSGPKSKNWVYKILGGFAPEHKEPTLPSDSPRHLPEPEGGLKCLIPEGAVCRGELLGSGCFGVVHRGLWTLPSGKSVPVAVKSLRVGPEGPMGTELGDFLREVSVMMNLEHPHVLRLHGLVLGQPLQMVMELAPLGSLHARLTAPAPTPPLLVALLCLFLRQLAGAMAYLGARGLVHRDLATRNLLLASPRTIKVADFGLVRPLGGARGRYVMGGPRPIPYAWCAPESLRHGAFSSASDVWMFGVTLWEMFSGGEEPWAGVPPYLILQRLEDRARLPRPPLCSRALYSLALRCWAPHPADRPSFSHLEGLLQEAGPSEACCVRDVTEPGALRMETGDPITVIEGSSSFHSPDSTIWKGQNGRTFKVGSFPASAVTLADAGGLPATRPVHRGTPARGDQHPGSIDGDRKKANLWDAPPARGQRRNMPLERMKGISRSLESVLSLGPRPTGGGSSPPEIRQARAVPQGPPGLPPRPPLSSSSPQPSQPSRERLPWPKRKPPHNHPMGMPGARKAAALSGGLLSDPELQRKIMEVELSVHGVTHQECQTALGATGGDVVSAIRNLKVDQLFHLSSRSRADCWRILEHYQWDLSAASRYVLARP
TGFBR2 (human), sequence (P37173 whole entry, looked up): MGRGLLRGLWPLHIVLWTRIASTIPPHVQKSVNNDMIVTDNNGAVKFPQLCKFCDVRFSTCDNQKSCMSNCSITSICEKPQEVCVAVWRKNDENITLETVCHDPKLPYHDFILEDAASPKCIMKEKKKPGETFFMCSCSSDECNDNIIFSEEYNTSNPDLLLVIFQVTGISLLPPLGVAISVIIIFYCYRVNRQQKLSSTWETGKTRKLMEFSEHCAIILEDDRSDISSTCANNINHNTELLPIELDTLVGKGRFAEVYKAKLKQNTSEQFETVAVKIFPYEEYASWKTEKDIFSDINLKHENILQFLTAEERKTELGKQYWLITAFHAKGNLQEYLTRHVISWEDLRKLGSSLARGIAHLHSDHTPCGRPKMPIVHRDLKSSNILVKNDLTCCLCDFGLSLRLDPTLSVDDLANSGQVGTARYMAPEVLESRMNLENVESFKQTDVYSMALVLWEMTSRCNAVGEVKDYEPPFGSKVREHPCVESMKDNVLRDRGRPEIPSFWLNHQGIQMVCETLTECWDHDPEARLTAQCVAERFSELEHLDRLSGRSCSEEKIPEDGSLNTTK
CHEK2 (human), sequence (O96017 whole entry, looked up): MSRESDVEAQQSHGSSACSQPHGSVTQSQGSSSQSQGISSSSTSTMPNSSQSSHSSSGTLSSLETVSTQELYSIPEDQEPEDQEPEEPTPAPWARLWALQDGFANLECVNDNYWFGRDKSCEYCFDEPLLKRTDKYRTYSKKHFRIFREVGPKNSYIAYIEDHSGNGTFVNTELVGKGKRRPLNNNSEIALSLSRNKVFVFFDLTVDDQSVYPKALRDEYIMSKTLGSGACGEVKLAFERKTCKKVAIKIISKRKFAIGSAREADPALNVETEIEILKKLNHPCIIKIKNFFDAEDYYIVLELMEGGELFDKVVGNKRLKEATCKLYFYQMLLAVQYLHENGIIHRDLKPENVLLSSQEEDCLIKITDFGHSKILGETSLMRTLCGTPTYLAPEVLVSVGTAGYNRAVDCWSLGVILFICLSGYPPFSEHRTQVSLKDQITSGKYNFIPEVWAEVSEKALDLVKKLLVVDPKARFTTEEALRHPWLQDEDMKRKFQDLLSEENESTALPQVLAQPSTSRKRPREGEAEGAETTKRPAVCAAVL
RPS6KA3 KD1 (human), sequence (P51812 whole entry, looked up): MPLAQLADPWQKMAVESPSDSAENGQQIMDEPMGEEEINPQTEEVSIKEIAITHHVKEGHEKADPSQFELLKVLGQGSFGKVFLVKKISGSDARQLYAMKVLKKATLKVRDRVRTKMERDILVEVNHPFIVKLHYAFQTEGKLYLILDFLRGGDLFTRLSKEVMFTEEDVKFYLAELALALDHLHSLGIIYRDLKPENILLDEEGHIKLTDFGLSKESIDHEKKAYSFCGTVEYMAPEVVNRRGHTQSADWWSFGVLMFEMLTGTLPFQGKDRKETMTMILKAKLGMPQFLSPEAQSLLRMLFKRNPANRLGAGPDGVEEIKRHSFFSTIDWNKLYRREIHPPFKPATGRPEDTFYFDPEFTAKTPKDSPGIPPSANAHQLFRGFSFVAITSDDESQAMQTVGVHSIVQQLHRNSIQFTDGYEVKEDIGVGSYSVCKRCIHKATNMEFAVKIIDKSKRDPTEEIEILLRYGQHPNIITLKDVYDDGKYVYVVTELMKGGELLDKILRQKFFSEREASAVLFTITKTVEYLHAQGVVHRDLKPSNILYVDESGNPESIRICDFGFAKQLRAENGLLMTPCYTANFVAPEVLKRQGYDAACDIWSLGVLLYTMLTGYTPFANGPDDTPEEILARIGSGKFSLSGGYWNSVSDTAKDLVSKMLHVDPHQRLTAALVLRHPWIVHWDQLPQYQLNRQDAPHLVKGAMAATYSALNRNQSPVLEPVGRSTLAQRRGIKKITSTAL

Row | Compound | kinase still bound, per cent of control (CHEK2 (human)) | kinase still bound, per cent of control (TGFBR2 (human)) | kinase still bound, per cent of control (TNK1 (human)) | kinase still bound, per cent of control (RPS6KA3 KD1 (human)) | kinase still bound, per cent of control (PAK1 (human)) | kinase still bound, per cent of control (STK10 (human)) | kinase still bound, per cent of control (MAPK9 (human)) | kinase still bound, per cent of control (LATS2 (human)) | kinase still bound, per cent of control (CIT (human)) | kinase still bound, per cent of control (CDK9 (human)) | kinase still bound, per cent of control (STK25 (human)) | kinase still bound, per cent of control (CSNK1G3 (human)) | kinase still bound, per cent of control (CSNK1G1 (human)) | kinase still bound, per cent of control (CDC2L2 (human)) | kinase still bound, per cent of control (RPS6KA6 KD2 (human)) | kinase still bound, per cent of control (DAPK1 (human)) | kinase still bound, per cent of control (FRK (human)) | kinase still bound, per cent of control (RIOK3 (human)) | kinase still bound, per cent of control (MAPK1 (human)) | kinase still bound, per cent of control (RIPK4 (human)) | also measured
1 | C=CC(=O)Nc1cccc(Oc2nc(Nc3ccc(N4CCN(C)CC4)cc3OC)ncc2Cl)c1 | 8.8% | 100% | 1.8% | 100% | 100% | 100% | 100% | 100% | 100% | 100% | 100% | 100% | 100% | 100% | 27% | 22% | 28% | 20% | 100% | 100% | kinase still bound, per cent of control (PAK6 (human)): 100%; kinase still bound, per cent of control (ACVR2B (human)): 100%; kinase still bound, per cent of control (TXK (human)): 16%; kinase still bound, per cent of control (STK32B (human)): 100%; kinase still bound, per cent of control (PTK2B (human)): 25%; kinase still bound, per cent of control (MINK1 (human)): 100%; kinase still bound, per cent of control (EPHA5 (human)): 100%; kinase still bound, per cent of control (CAMK2G (human)): 100%; kinase still bound, per cent of control (MAP3K11 (human)): 100%; kinase still bound, per cent of control (MAPK4 (human)): 100%; kinase still bound, per cent of control (MAP4K4 (human)): 100%; kinase still bound, per cent of control (MAP3K5 (human)): 100%; kinase still bound, per cent of control (PRKD1 (human)): 12%; kinase still bound, per cent of control (ADCK3 (human)): 100%; kinase still bound, per cent of control (RIOK1 (human)): 17%; kinase still bound, per cent of control (DAPK2 (human)): 28%; kinase still bound, per cent of control (CDK3 (human)): 100%; kinase still bound, per cent of control (LTK (human)): 3.6%; kinase still bound, per cent of control [1]: 100%; kinase still bound, per cent of control (EPHA4 (human)): 100%
2 | Cc1ccc(NC(=O)c2cccc(C(C)(C)C#N)c2)cc1Nc1ccc2ncn(C)c(=O)c2c1 | 92% | 94% | 100% | 90% | 100% | 0.1% | 1.8% | 99% | 0.05% | 100% | 100% | 100% | 88% | 5.4% | 3.5% | 100% | 2.8% | 100% | 100% | 98% | kinase still bound, per cent of control (PAK6 (human)): 84%; kinase still bound, per cent of control (ACVR2B (human)): 100%; kinase still bound, per cent of control (TXK (human)): 5.6%; kinase still bound, per cent of control (STK32B (human)): 100%; kinase still bound, per cent of control (PTK2B (human)): 100%; kinase still bound, per cent of control (MINK1 (human)): 7.2%; kinase still bound, per cent of control (EPHA5 (human)): 1%; kinase still bound, per cent of control (CAMK2G (human)): 100%; kinase still bound, per cent of control (MAP3K11 (human)): 91%; kinase still bound, per cent of control (MAPK4 (human)): 100%; kinase still bound, per cent of control (MAP4K4 (human)): 10%; kinase still bound, per cent of control (MAP3K5 (human)): 100%; kinase still bound, per cent of control (PRKD1 (human)): 67%; kinase still bound, per cent of control (ADCK3 (human)): 100%; kinase still bound, per cent of control (RIOK1 (human)): 100%; kinase still bound, per cent of control (DAPK2 (human)): 100%; kinase still bound, per cent of control (CDK3 (human)): 100%; kinase still bound, per cent of control (LTK (human)): 100%; kinase still bound, per cent of control [1]: 100%; kinase still bound, per cent of control (EPHA4 (human)): 0%
